Results on 37 compounds are retold here after ChEMBL document CHEMBL1132024, “N-phosphonoalkyl-5-aminomethylquinoxaline-2,3-diones: in vivo active AMPA and NMDA(glycine) antagonists” (Bioorg Med Chem Lett, 1999).

Data set [1] concerns the target Glutamate receptor ionotropic, AMPA (Rattus norvegicus, UniProt P19490+P19491+P19492+P19493). Briefly: (§1) In vitro inhibition of binding of [3H]AMPA towards AMPA receptor in rat.
In a further data set the target is Glutamate NMDA receptor. Briefly: In vitro inhibition of binding of [3H]MDL-105519 towards glycine binding site of NMDA receptor in rat.
The subject of data set [2] is Mus musculus. Briefly: In vivo anticonvulsant effects in the electroshock induced convulsion in mice after 50 mg/kg intraperitoneal administration and 30 min pretreatment time. It counts as functional.
For data set [3], the system named is Mus musculus. Briefly: In vivo anticonvulsant effects on electroshock induced convulsion in mice after i.p. administration and 30 min pretreatment. It counts as functional. The conditions noted are these: ip.
In data set [4] the target is Glutamate receptor ionotropic, NMDA 1 (Rattus norvegicus) (UniProt P35439). Briefly: In vitro inhibition of binding of [3H]MDL-105519 towards glycine binding site of NMDA receptor in rat at a concentration of 1 uM.
Data set [5] has the same target. Briefly: In vitro inhibition of binding of [3H]MDL-105,519 towards glycine binding site of NMDA receptor in rat. The conditions noted are these: concentration not given here.
The subject of data set [6] is Mus musculus. Briefly: In vivo anticonvulsant effects in the electroshock induced convulsion in mice after intraperitoneal administration and 15 min pretreatment time. It counts as functional. The conditions noted are these: ip.
Data set [7] has as its system Mus musculus. Briefly: In vivo anticonvulsant effects in the electroshock induced convulsion in mice after 50 mg/kg intraperitoneal administration and 1 hr pretreatment time. It is filed as functional.
In data set [8] the target is Glutamate receptor ionotropic, AMPA (Rattus norvegicus) (UniProt P19491+P19492+P19493+P19490). The data set is described as §1. The conditions noted are these: concentration not given here.
The target of data set [9] is Glutamate receptor ionotropic, AMPA (Rattus norvegicus, UniProt P19491+P19492+P19493+P19490). Briefly: In vitro inhibition of binding of [3H]-AMPA towards AMPA receptor in rat; No affinity.
Sequence of Glutamate receptor ionotropic, AMPA (Rattus norvegicus, UniProt P19491+P19492+P19493+P19490) (P19491 whole entry): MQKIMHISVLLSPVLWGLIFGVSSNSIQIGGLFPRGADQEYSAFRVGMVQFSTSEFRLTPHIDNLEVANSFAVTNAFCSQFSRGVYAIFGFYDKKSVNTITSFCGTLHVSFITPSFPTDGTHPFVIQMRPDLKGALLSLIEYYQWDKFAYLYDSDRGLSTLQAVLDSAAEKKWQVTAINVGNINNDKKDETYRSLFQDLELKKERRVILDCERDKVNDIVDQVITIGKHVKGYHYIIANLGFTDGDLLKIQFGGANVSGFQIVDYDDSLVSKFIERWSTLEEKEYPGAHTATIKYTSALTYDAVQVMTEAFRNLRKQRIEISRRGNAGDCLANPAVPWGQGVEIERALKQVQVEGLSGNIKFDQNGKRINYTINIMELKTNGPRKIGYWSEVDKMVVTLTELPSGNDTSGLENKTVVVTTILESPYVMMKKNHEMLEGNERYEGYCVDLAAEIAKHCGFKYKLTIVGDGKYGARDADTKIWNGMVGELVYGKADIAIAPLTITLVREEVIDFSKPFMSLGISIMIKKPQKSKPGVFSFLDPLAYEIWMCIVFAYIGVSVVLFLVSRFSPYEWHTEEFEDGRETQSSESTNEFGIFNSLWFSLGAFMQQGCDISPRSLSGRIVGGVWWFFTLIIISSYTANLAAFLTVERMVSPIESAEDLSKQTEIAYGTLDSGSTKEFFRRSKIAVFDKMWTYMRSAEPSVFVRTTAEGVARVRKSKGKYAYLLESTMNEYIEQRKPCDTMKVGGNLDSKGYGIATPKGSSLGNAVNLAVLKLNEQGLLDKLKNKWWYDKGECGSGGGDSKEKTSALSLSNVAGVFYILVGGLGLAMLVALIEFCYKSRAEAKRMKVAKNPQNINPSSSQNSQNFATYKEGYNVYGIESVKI
Sequence of Glutamate receptor ionotropic, AMPA (Rattus norvegicus, UniProt P19491+P19492+P19493+P19490) (P19492 whole entry): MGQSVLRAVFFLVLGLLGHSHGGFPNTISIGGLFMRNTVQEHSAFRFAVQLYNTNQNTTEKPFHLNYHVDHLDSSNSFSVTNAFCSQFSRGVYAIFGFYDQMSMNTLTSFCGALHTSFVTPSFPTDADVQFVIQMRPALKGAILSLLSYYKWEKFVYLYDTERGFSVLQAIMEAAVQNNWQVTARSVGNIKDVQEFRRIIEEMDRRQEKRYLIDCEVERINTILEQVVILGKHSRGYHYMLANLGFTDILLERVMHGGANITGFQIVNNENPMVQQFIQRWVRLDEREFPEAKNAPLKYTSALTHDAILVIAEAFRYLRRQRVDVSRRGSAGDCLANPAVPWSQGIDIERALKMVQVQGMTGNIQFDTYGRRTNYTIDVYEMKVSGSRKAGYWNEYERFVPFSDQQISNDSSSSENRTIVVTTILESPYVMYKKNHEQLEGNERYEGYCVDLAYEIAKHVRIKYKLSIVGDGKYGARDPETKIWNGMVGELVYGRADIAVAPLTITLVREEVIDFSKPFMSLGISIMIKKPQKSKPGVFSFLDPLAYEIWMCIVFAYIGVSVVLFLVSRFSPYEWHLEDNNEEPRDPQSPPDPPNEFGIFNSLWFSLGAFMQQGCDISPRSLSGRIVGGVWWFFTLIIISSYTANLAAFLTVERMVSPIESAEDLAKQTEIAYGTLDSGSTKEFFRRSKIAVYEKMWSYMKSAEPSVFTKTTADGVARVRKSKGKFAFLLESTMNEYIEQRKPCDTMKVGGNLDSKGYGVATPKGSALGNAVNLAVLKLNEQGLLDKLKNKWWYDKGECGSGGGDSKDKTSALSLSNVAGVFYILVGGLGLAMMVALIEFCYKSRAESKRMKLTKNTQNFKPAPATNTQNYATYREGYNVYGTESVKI
Sequence of Glutamate receptor ionotropic, AMPA (Rattus norvegicus, UniProt P19491+P19492+P19493+P19490) (P19493 whole entry): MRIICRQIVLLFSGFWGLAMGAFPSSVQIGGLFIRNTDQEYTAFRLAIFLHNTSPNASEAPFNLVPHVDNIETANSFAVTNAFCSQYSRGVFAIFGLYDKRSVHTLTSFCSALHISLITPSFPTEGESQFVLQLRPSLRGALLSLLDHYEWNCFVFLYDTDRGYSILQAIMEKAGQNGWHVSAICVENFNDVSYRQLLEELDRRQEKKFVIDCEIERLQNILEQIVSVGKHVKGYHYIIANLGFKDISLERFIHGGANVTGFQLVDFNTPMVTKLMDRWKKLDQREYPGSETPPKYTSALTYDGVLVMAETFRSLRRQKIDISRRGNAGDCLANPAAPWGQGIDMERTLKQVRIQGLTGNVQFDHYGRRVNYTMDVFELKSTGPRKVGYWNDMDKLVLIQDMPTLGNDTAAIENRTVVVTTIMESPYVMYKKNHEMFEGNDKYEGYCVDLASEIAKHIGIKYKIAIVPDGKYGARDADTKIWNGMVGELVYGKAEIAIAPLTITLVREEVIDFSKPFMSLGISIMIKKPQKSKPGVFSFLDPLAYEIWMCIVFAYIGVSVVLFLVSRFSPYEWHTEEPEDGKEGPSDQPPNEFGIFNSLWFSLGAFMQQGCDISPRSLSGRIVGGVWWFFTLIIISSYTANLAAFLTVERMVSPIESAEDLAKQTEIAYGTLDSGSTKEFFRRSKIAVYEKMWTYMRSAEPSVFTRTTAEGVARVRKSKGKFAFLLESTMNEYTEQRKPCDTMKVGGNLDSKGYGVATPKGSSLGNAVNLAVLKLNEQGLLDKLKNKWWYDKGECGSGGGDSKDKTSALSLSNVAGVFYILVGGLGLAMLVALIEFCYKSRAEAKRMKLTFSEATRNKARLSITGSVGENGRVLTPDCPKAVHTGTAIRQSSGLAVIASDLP
Sequence of Glutamate receptor ionotropic, AMPA (Rattus norvegicus, UniProt P19491+P19492+P19493+P19490) (P19490 whole entry): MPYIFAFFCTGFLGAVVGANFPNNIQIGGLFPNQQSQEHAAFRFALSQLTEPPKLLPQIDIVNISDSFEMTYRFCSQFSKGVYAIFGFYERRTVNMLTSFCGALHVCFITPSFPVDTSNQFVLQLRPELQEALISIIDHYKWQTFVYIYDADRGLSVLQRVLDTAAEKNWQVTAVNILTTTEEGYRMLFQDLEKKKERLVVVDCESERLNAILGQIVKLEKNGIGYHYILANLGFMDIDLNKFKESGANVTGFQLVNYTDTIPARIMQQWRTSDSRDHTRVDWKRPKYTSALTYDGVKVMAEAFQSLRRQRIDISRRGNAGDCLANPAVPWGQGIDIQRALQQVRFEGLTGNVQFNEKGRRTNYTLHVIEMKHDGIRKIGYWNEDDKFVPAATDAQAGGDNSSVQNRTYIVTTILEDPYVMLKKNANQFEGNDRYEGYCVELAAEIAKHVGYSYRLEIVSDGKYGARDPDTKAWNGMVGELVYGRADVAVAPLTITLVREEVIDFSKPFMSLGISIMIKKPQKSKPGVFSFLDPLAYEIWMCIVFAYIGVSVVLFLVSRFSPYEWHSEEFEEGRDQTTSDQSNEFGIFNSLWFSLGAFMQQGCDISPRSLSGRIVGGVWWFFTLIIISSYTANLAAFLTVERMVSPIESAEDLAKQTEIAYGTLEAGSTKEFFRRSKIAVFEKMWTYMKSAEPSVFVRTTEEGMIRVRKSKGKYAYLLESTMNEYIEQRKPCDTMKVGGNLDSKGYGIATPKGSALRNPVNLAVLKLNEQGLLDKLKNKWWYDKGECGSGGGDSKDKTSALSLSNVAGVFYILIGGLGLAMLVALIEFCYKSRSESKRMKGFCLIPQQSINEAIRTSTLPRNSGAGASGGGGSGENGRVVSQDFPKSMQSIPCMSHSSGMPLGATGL
The nature of data set [10]: Partition coefficient (logP). It is filed as physicochemical. The conditions noted are these: octanol/water.
Data set [11] relates to Mus musculus. Briefly: In vivo anticonvulsant effects in the electroshock induced convulsion in mice after intraperitoneal administration and 2 hr pretreatment time. It counts as functional. The conditions noted are these: ip.
For data set [12], the system named is Mus musculus. Briefly: In vivo anticonvulsant effects in the electroshock induced convulsion in mice after intraperitoneal administration and 1 hr pretreatment time. The conditions noted are these: ip. It counts as functional.

As for `O=P(O)(O)CNCc1cc(Br)cc2nc(O)c(O)nc12`, the IC50 (usually the concentration at which inhibition is half-maximal) in data set [1] worked out at 2400 nM; on Glutamate NMDA receptor it was 100 nM. Also, the Protection with Mus musculus [2] was 0%.
As to `C[C@@H](NCc1cc([N+](=O)[O-])cc2[nH]c(=O)c(=O)[nH]c12)[P+]([O-])(O)O`, the IC50 in data set [1] was determined as 170 nM; at Glutamate NMDA receptor it was 32 nM. In addition, the ED50 (as a rule, the dose that gives a 50% effect, or the effect in half of the subjects) in the data set on Mus musculus [3] came to 3 mg/kg.
Consider `Br.CCN(Cc1cc([N+](=O)[O-])cc2nc(O)c(O)nc12)CP(=O)(O)O`, for which the IC50 in data set [1] was found to be 120 nM. The ED50 in the data set with Mus musculus [3] was determined as 18 mg/kg. In addition, in data set [4], the inhibition (in general, the change of the read-out against control, counted positive when it falls) was determined as 24%.
Turning to `O=c1[nH]c2cc([N+](=O)[O-])cc(CNCP(=O)(O)O)c2[nH]c1=O`, the results for the IC50 (in data set [1]; on Glutamate NMDA receptor) were 290 nM and 1000 nM, respectively. For the same compound, the ED50 with Mus musculus [3] came out at 7 mg/kg.
Compound `COC(=O)C(C)(C)NCc1cc([N+](=O)[O-])cc2nc(O)c(O)nc12` yielded an IC50 in [1] of 1900 nM. The inhibition in data set [4] was -3%.
Consider `C[C@H](CP(=O)(O)O)NCc1cc([N+](=O)[O-])cc2nc(O)c(O)nc12`, for which, in [1], the IC50 was determined as 200 nM. In addition, in the data set with Mus musculus [3], the ED50 came to 9 mg/kg. Moreover, the inhibition in [4] was determined as 6%.
`Br.CC[C@H](NCc1cc([N+](=O)[O-])cc2nc(O)c(O)nc12)C(=O)O` gave an IC50 in data set [1] of 1200 nM. Also, the inhibition in [5] turned out to be 34%. The Protection in the data set on Mus musculus [2] is reported as 0%.
As to `C[C@@H](NCc1cc(C(F)(F)F)cc2[nH]c(=O)c(=O)[nH]c12)P(=O)(O)O`, the IC50 in data set [1] was 1200 nM; at Glutamate NMDA receptor, 6 nM. The ED50 in the data set on Mus musculus [3] is 8 mg/kg.
On the same counts, the results for `CCN(Cc1cc(C(F)(F)F)cc2nc(O)c(O)nc12)[C@@H](C)P(=O)(O)O` are 68 nM, 4000 nM and 10 mg/kg.
With `C[C@H](NCc1cc(C(F)(F)F)cc2nc(O)c(O)nc12)P(=O)(O)O`, the IC50 in data set [1] turned out to be 540 nM; at Glutamate NMDA receptor, 590 nM. Moreover, in the data set with Mus musculus [3], the ED50 stood at 20 mg/kg.
For the compound `Br.O=C(O)CCNCc1cc([N+](=O)[O-])cc2nc(O)c(O)nc12`, the figures for the IC50 (in data set [1]; at Glutamate NMDA receptor) were 380 nM and 19000 nM, respectively. Moreover, the ED50 in the data set on Mus musculus [3] stood at 35 mg/kg.
Take `Br.O=C(O)CNCc1cc([N+](=O)[O-])cc2nc(O)c(O)nc12`: the 50% inhibitory concentration (IC50) is 160 nM in data set [1] and 760 nM on Glutamate NMDA receptor. Further, in the data set on Mus musculus [6], the ED50 turned out to be 32 mg/kg.
For `O=C(O)COCc1cc(Br)cc2nc(O)c(O)nc12`, the Protection with Mus musculus [7] amounted to 0%. In addition, the 50% inhibitory concentration (IC50) on Glutamate NMDA receptor amounted to 110 nM. Further, the inhibition in [8] is 4%.
As to `Br.C[C@@H](NCc1cc([N+](=O)[O-])cc2nc(O)c(O)nc12)C(=O)O`, the IC50 in data set [1] was 380 nM; on Glutamate NMDA receptor, 1300 nM. Further, the Protection in the data set on Mus musculus [2] was determined as 0%.
`CC(=O)N(Cc1cc([N+](=O)[O-])cc2nc(O)c(O)nc12)C(C)P(=O)(O)O` (centres undefined): the IC50 in [1] came out at 1300 nM. Moreover, in data set [4], the inhibition was 31%.
Regarding `O=C(O)CSCc1cc(Br)cc2nc(O)c(O)nc12`, in the data set on Mus musculus [7], the Protection turned out to be 0%. Moreover, on Glutamate NMDA receptor, the IC50 stood at 120 nM. For the same compound, in data set [8], the inhibition is 22%.
In the case of `C[C@H](NCc1cc([N+](=O)[O-])cc2nc(O)c(O)nc12)P(=O)(O)O`, the IC50 in data set [1] was found to be 380 nM. For the same compound, the ED50 in the data set on Mus musculus [3] was found to be 8 mg/kg. For the same compound, the inhibition in data set [4] was 51%.
On to `O=P(O)(O)CNCc1cc(C(F)(F)F)cc2nc(O)c(O)nc12`, for which the IC50 in data set [1] was found to be 2000 nM; on Glutamate NMDA receptor, 300 nM. For the same compound, the ED50 in the data set with Mus musculus [3] was determined as 30 mg/kg.
On to `CC(OCc1cc([N+](=O)[O-])cc2nc(O)c(O)nc12)C(=O)O` (centres undefined), for which the concentration for half-maximal inhibition (IC50) in data set [1] is 1300 nM; at Glutamate NMDA receptor, 420 nM.
On the same counts, the results for `O=C(O)CCCNCc1cc([N+](=O)[O-])cc2nc(O)c(O)nc12` are 610 nM and 9000 nM.
In turn, `O=[N+]([O-])c1cc(CNCCP(=O)(O)O)c2nc(O)c(O)nc2c1` had an IC50 in data set [1] of 640 nM. Besides, the ED50 in the data set on Mus musculus [3] came out at 18 mg/kg. Besides, the inhibition in [4] was 8%.
As for `NCc1ccc(NC(=O)C[C@@H]2CCc3cc(Cl)cc4[nH]c(=O)c(=O)n2c34)c(OCC(=O)O)c1`, the IC50 on Glutamate NMDA receptor was 500 nM; in [9] it was “Not Active”.
`O=C(O)CCNCc1cc(Br)cc2nc(O)c(O)nc12` gave an IC50 in data set [1] of 3800 nM. Moreover, in [4], the inhibition worked out at 37%.
Take `O=C(O)C1CCN(Cc2cc([N+](=O)[O-])cc3nc(O)c(O)nc23)CC1`: the IC50 in data set [1] turned out to be 70 nM; on Glutamate NMDA receptor, 3900 nM. The ED50 in the data set with Mus musculus [3] was determined as 44 mg/kg.
On Glutamate NMDA receptor, `CCC(NCc1cc(Br)cc2nc(O)c(O)nc12)P(=O)(O)O` (centres undefined) displayed an IC50 of 45 nM. Besides, the inhibition in data set [8] is 16%. The Protection with Mus musculus [2] turned out to be 20%.
Take `C[C@H](NCc1cc(Br)cc2nc(O)c(O)nc12)C(=O)O`: the IC50 in data set [1] turned out to be 4300 nM; at Glutamate NMDA receptor it was 2200 nM.
On to `CCN(Cc1cc([N+](=O)[O-])cc2nc(O)c(O)nc12)[C@@H](C)P(=O)(O)O`, for which, in data set [1], the concentration for half-maximal inhibition (IC50) stood at 80 nM. The lipophilicity (logP) – broadly, a log measure of how a compound divides between an organic and an aqueous phase – in data set [10] is -3.5. Further, the ED50 with Mus musculus [11] worked out at 18 mg/kg; in the data set on Mus musculus [3], 7 mg/kg.
For the compound `Br.O=C(O)CNCc1cc(Br)cc2nc(O)c(O)nc12`, the IC50 amounted to 4700 nM in data set [1] and 40 nM at Glutamate NMDA receptor. Besides, the Protection in the data set with Mus musculus [2] turned out to be 0%.
In the case of `C[C@H](NCc1cc(Br)cc2nc(O)c(O)nc12)P(=O)(O)O`, the IC50 in data set [1] came out at 1400 nM. The ED50 with Mus musculus [3] was determined as 43 mg/kg.
On to `C[C@@H](NCc1cc(Br)cc2nc(O)c(O)nc12)C(=O)O`, for which the results for the IC50 (in [1]; at Glutamate NMDA receptor) were 4500 nM and 120 nM, respectively.
`Br.C[C@H](NCc1cc([N+](=O)[O-])cc2nc(O)c(O)nc12)C(=O)O`: in the data set on Mus musculus [7], the Protection is recorded as 0%. For the same compound, the figures for the IC50 (in data set [1]; at Glutamate NMDA receptor) were 310 nM and 1700 nM, respectively. Also, the logP in [10] was -1.93. For the same compound, the ED50 in the data set with Mus musculus [12] amounted to 19 mg/kg.
On to `O=C(O)COCc1cc([N+](=O)[O-])cc2nc(O)c(O)nc12`, for which the values for the IC50 (in data set [1]; at Glutamate NMDA receptor) were 2000 nM and 310 nM, respectively.
For the compound `C[C@@H](CP(=O)(O)O)NCc1cc([N+](=O)[O-])cc2nc(O)c(O)nc12`, the IC50 in data set [1] is 200 nM. In addition, the ED50 in the data set with Mus musculus [3] was 10 mg/kg. Further, in data set [4], the inhibition turned out to be 15%.
Compound `Br.CC(C)(NCc1cc([N+](=O)[O-])cc2nc(O)c(O)nc12)C(=O)O` displayed a 50% inhibitory concentration (IC50) in data set [1] of 290 nM. In addition, in data set [5], the inhibition is -9%. Further, the Protection with Mus musculus [2] amounted to 0%.
On the same counts, the results for `Br.C[C@H](NCCc1cc([N+](=O)[O-])cc2nc(O)c(O)nc12)C(=O)O` are 340 nM, 22% and 0%.
The compound `C[C@@H](NCc1cc(Br)cc2nc(O)c(O)nc12)P(=O)(O)O` showed an IC50 in data set [1] of 3000 nM. Further, the ED50 with Mus musculus [11] was found to be 18 mg/kg; in the data set with Mus musculus [3], 12 mg/kg.
Compound `CCN(Cc1cc([N+](=O)[O-])cc2nc(O)c(O)nc12)[C@H](C)P(=O)(O)O` showed an IC50 in data set [1] of 310 nM. Besides, the ED50 in the data set with Mus musculus [3] came out at 26 mg/kg. In addition, the inhibition in data set [4] was 25%.
